Data reported in ChEMBL document CHEMBL1123832, “Structure-activity relationships in an imidazole-based series of thromboxane synthase inhibitors” (J Med Chem, 1987).

The compounds below were run against T1, Thromboxane-A synthase (Homo sapiens, UniProt P24557) (assay: Compound was tested for inhibitory activity against human platelet microsomal TXA2 synthase).
T1 sequence (P24557 whole entry): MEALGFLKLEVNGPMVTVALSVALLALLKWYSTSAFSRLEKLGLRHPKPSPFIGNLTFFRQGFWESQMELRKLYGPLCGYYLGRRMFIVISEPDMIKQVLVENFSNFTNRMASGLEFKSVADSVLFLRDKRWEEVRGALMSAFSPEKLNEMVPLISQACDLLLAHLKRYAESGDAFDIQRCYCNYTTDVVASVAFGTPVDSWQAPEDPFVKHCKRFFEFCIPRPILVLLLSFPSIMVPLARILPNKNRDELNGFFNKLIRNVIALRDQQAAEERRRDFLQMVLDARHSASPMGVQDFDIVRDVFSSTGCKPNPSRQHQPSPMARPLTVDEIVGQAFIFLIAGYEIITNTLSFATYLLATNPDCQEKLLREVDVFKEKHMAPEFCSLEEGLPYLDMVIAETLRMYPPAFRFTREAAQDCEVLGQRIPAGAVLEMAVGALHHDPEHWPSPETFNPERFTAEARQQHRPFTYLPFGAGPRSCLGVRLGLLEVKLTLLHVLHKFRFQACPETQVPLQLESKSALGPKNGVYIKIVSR

| IC50 [µM] | Structure (SMILES) |
| --- | --- |
| 2 | CCCCOC(=O)c1ccc(COC(COCc2ccc(OC)cc2)Cn2ccnc2)cc1 (stereo unspecified) |
| 7.1 | COc1ccc(COCC(Cn2ccnc2)OCc2ccc(C(=O)OCc3ccccc3)cc2)cc1 (stereo unspecified) |
| 5.3 | CCOC(=O)c1ccc(COC(COCc2ccc(OC)cc2)Cn2ccnc2)cc1 (stereo unspecified) |
| 1.1 | COc1ccc(COCC(Cn2ccnc2)OCc2ccc(C(=O)O)cc2)cc1 (stereo unspecified) |

These compounds were tested against T1, Thromboxane-A synthase (assay: Tested for inhibitory activity against intact human platelet TXA2 formation).
Format: functional

| Structure (SMILES) | IC50 [µM] |
| --- | --- |
| COc1ccc(COCC(Cn2ccnc2)OCc2ccc(SC)cc2)cc1 (stereo unspecified) | 6.4 |
| CCCCCCCCOC(=O)c1ccc(COC(COCc2ccc(OC)cc2)Cn2ccnc2)cc1 (stereo unspecified) | 21 |
| COc1ccc(COCC(Cn2ccnc2)OCc2ccc(S(C)(=O)=O)cc2)cc1 (stereo unspecified) | 24.9 |
| CCOC(=O)c1cccc(COC(COCc2ccc(OC)cc2)Cn2ccnc2)c1 (stereo unspecified) | 7.2 |
| COc1ccc(COCC(Cn2ccnc2)OCc2ccc(C(=S)N(C)C)cc2)cc1 (stereo unspecified) | 12.4 |
| COc1ccc(COCC(Cn2ccnc2)OCc2ccc(OC)cc2)cc1 (stereo unspecified) | 9.9 |
| COc1ccc(COCC(Cn2ccnc2)OCc2ccc3c(c2)COC3=O)cc1 (stereo unspecified) | 6.2 |
| CCNC(=O)c1ccc(COC(COCc2ccc(OC)cc2)Cn2ccnc2)cc1 (stereo unspecified) | 12.4 |
| COc1ccc(COCC(Cn2ccnc2)OCc2ccc(C(=O)O)cc2)cc1 (stereo unspecified) | 6.7 |
| COc1ccc(COCC(Cn2ccnc2)OCc2ccc([S+](C)[O-])cc2)cc1 (stereo unspecified) | 8.6 |

The next compounds have a lower IC50 than those just listed; values first:

| IC50 [µM] | Structure (SMILES) |
| --- | --- |
| 0.18 | CCCOC(=O)c1ccc(COC(COCc2ccc(OC)cc2)Cn2ccnc2)cc1 (stereo unspecified) |
| 0.2 | CCCCOC(=O)c1ccc(COC(COCc2ccc(OC)cc2)Cn2ccnc2)cc1 (stereo unspecified) |
| 1.49 | COc1ccc(COCC(Cn2ccnc2)OCc2ccc(C(=O)OCc3ccccc3)cc2)cc1 (stereo unspecified) |
| 0.54 | CCOC(=O)c1ccc(COC(COCc2ccc(OC)cc2)Cn2ccnc2)cc1 (stereo unspecified) |
| 1.61 | COc1ccc(COCC(Cn2ccnc2)OCc2ccc(C(=O)OC(C)C)cc2)cc1 (stereo unspecified) |
| 1.94 | COc1ccc(COCC(Cn2ccnc2)OCc2ccc(C(=O)N(C)C)cc2)cc1 (stereo unspecified) |
| 6 | COc1ccc(COCC(Cn2ccnc2)OCc2ccc(C(N)=O)cc2)cc1 (stereo unspecified) |
| 0.56 | COc1ccc(COCC(Cn2ccnc2)OCc2ccc(C(=O)Oc3ccccc3)cc2)cc1 (stereo unspecified) |
| 0.7 | CCOC(=O)c1ccc(COCC(Cn2ccnc2)OCc2ccc(C(=O)OCC)cc2)cc1 (stereo unspecified) |
| 5.4 | CCCCN(C)C(=O)c1ccc(COC(COCc2ccc(OC)cc2)Cn2ccnc2)cc1 (stereo unspecified) |
| 3.6 | CCOC(=O)c1ccc(COCC(Cn2ccnc2)OCc2ccc(OC)cc2)cc1 (stereo unspecified) |
| 1.26 | COC(=O)c1ccc(COC(COCc2ccc(OC)cc2)Cn2ccnc2)cc1 (stereo unspecified) |
